Source: article PMC8541628, “Development of Novel Quinoline-Based Sulfonamides as Selective Cancer-Associated Carbonic Anhydrase Isoform IX Inhibitors” (International Journal of Molecular Sciences, 2021)

Assays:
hCA XII = hCA XII (Homo sapiens, UniProt O43570); experiment: stopped flow carbon dioxide hydrase assay, hCA XII; details: for Selectivity ratio I/XII: hCA XII over hCA I; for Selectivity ratio II/XII: hCA XII over hCA II
hCA I = hCA I (Homo sapiens, UniProt P00915); experiment: stopped flow carbon dioxide hydrase assay, hCA I
hCA IX = hCA IX (Homo sapiens, UniProt Q16790); experiment: stopped flow carbon dioxide hydrase assay, hCA IX; details: for Selectivity ratio I/IX: hCA IX over hCA I; for Selectivity ratio II/IX: hCA IX over hCA II
hCA II = hCA II (Homo sapiens, UniProt P00918); experiment: stopped flow carbon dioxide hydrase assay, hCA II
MDA-MB-231 = experiment: 72 h MTT anti-proliferative assay under hypoxic conditions, MDA-MB-231; type: cell-based; details: Homo sapiens, mean ± S.D. of three experiments
Excerpt: (§1) 1. Carbonic anhydrase inhibition assay
The enzymes are recombinant proteins prepared in our lab.
parameters and inhibition constants.
2. Anti-proliferative action toward human breast cell lines

MCF-7 = experiment: 72 h MTT anti-proliferative assay under hypoxic conditions, MCF-7; type: cell-based; details: Homo sapiens, MCF7, mean ± S.D. of three experiments
Experimental: Therefore, QBS 11c and 13b were further screened for their potential in vitro anti-proliferative action against two breast cancer cell lines (MDA-MB-231 and MCF-7) under hypoxic conditions, exploiting a 72 h MTT assay protocol and using Doxorubicin as a positive control drug.
All adopted procedures for the conducted in vitro biological assays were performed as described earlier; CA (stopped-flow), cytotoxicity (MTT [37, 38]), and assessment of apoptotic markers assays, as well as induction of hypoxia with cobalt chloride, and were mentioned in the Supporting Materials.
as §1
16) herein reported have were assayed utilizing an instrument of Applied Photophysics stopped-flow. The enzymes are recombinant proteins prepared in our lab. Phenol red (at a concentration of 0.2 mM) has been used as indicator, working at the absorbance maximum of 557 nm, with 20 mM Hepes (pH 7.5) as buffer, and 20 mM Na2SO4 (for maintaining constant the ionic strength), […]
parameters and inhibition constants. For each inhibitor at least six traces of the initial 5-10% of the reaction have been used for determining the initial velocity . Th e un cat aly zed rates were determined in the same manner and subtracted from the total observed rates. Stock solutions of inhibitor (0.1 mM) were prepared in distilled-deionized water and dilutions up to 0.01 nM were done thereafter with the assay buffer. Inhibitor and enzyme solutions were preincubated together for 15 min at room temperature prior to assay, in order to allow fo r the formation of the E-I complex. […]
Cells were sub-cultured with try psine /EDTA solution, counted with haemocy tometer and plated onto 96-well plates (5000 cells/well) and left overnight to form a semi-confluent […]
monolay er. […] DMSO (100 µl/well) was added to dissolve the formazan crystals with shaking for 10 min after which the absorbance was read at 590 nm against no cell blanks on a FLuo Star Optima microplate reader (BMG technologies, Germany). Cell proliferation was calculated comparing the OD values of the DMSO control wells and those of the samples

Chain of hCA XII (O43570 25-354): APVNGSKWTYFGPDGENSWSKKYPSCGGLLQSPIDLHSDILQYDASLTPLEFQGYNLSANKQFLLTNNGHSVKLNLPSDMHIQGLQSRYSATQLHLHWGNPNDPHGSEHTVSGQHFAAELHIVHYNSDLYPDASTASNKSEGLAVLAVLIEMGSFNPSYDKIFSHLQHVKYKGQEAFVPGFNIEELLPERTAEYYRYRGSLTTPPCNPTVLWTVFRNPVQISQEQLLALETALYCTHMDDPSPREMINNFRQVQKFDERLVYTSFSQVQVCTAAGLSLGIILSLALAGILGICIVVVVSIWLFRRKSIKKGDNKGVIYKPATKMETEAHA
Chain of hCA I (P00915 whole entry): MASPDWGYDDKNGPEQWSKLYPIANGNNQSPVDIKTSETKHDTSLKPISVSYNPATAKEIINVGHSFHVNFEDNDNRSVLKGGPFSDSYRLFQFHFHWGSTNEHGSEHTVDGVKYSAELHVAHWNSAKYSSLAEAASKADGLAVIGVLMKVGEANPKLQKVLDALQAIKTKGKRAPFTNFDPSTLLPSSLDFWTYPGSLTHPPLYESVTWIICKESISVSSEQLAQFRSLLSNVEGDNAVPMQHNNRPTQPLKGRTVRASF

Cc1ccc2nccc(Nc3ccccc3S(N)(=O)=O)c2c1 [9a, 2-((6-methylquinolin-4-yl)amino)benzenesulfonamide]
Ki (hCA XII): 22.8 nM
Selectivity ratio I/XII (hCA XII): 24.5
Selectivity ratio II/XII (hCA XII): 3.4
melting point: 264 to 265 °C
Ki (hCA I): 558 nM
Ki (hCA IX): 36.4 nM
Selectivity ratio I/IX (hCA IX): 15.3
Selectivity ratio II/IX (hCA IX): 2.2
Ki (hCA II): 78.4 nM

COc1ccc2nccc(Nc3ccccc3S(N)(=O)=O)c2c1 [9b, 2-((6-methoxyquinolin-4-yl)amino)benzenesulfonamide]
Ki (hCA XII): 42.1 nM
Selectivity ratio I/XII (hCA XII): 20.5
Selectivity ratio II/XII (hCA XII): 1.2
melting point: 275 to 277 °C
Ki (hCA I): 864 nM
Ki (hCA IX): 39.2 nM
Selectivity ratio I/IX (hCA IX): 22.1
Selectivity ratio II/IX (hCA IX): 1.3
Ki (hCA II): 49.7 nM

NS(=O)(=O)c1ccccc1Nc1ccnc2ccc(Cl)cc12 [9c, 2-((6-chloroquinolin-4-yl)amino)benzenesulfonamide]
Ki (hCA XII): 38.4 nM
Selectivity ratio I/XII (hCA XII): 32.3
Selectivity ratio II/XII (hCA XII): 2.3
melting point: 258 to 260 °C
Ki (hCA I): 1240 nM
Ki (hCA IX): 65.6 nM
Selectivity ratio I/IX (hCA IX): 18.9
Selectivity ratio II/IX (hCA IX): 1.3
Ki (hCA II): 86.8 nM

NS(=O)(=O)c1ccccc1Nc1ccnc2cc(C(F)(F)F)cc(C(F)(F)F)c12 [9d, 2-((5,7-bis(trifluoromethyl)quinolin-4-yl)amino)benzenesulfonamide]
Ki (hCA I): 1560 nM
Ki (hCA II): 112 nM

Cc1ccc2nccc(Nc3cccc(S(N)(=O)=O)c3)c2c1 [11a, 3-((6-methylquinolin-4-yl)amino)benzenesulfonamide]
Ki (hCA XII): 41.2 nM
Selectivity ratio I/XII (hCA XII): 16.1
Selectivity ratio II/XII (hCA XII): 6.4
melting point: 272 to 274 °C
Ki (hCA I): 663 nM
Ki (hCA IX): 70.1 nM
Selectivity ratio I/IX (hCA IX): 9.5
Selectivity ratio II/IX (hCA IX): 3.8
Ki (hCA II): 265 nM

COc1ccc2nccc(Nc3cccc(S(N)(=O)=O)c3)c2c1 [11b, 3-((6-methoxyquinolin-4-yl)amino)benzenesulfonamide]
Ki (hCA XII): 73.1 nM
Selectivity ratio I/XII (hCA XII): 3.5
Selectivity ratio II/XII (hCA XII): 5.0
melting point: 244 to 246 °C
Ki (hCA I): 258 nM
Ki (hCA IX): 86.5 nM
Selectivity ratio I/IX (hCA IX): 3.0
Selectivity ratio II/IX (hCA IX): 4.2
Ki (hCA II): 366 nM

NS(=O)(=O)c1cccc(Nc2ccnc3cc(C(F)(F)F)cc(C(F)(F)F)c23)c1 [11d, 3-((5,7-bis(trifluoromethyl)quinolin-4-yl)amino)benzenesulfonamide]
Ki (hCA XII): 34 nM
Selectivity ratio I/XII (hCA XII): 3.1
Selectivity ratio II/XII (hCA XII): 6.5
melting point: 172 to 174 °C
Ki (hCA I): 105 nM
Ki (hCA IX): 52.9 nM
Selectivity ratio I/IX (hCA IX): 2.0
Selectivity ratio II/IX (hCA IX): 4.2
Ki (hCA II): 221 nM

Cc1ccc2nccc(Nc3ccc(C)c(S(N)(=O)=O)c3)c2c1 [11e, 2-methyl-5-((6-methylquinolin-4-yl)amino)benzenesulfonamide]
Ki (hCA XII): 88.1 nM
Selectivity ratio I/XII (hCA XII): 39.7
Selectivity ratio II/XII (hCA XII): 17.1
melting point: 280 to 282 °C
Ki (hCA I): 3500 nM
Ki (hCA IX): 104 nM
Selectivity ratio I/IX (hCA IX): 33.8
Selectivity ratio II/IX (hCA IX): 14.5
Ki (hCA II): 1500 nM

COc1ccc2nccc(Nc3ccc(C)c(S(N)(=O)=O)c3)c2c1 [11f, 5-((6-methoxyquinolin-4-yl)amino)-2-methylbenzenesulfonamide]
Ki (hCA XII): 152 nM
Selectivity ratio I/XII (hCA XII): 14.8
Selectivity ratio II/XII (hCA XII): 6.6
melting point: 248 to 250 °C
Ki (hCA I): 2260 nM
Ki (hCA IX): 853 nM
Selectivity ratio I/IX (hCA IX): 2.6
Selectivity ratio II/IX (hCA IX): 1.2
Ki (hCA II): 998 nM

Cc1ccc(Nc2ccnc3ccc(Cl)cc23)cc1S(N)(=O)=O [11g, 5-((6-chloroquinolin-4-yl)amino)-2-methylbenzenesulfonamide]
Ki (hCA XII): 92.7 nM
Selectivity ratio I/XII (hCA XII): 48.8
Selectivity ratio II/XII (hCA XII): 25.4
melting point: 282 to 285 °C
Ki (hCA I): 4520 nM
Ki (hCA IX): 116 nM
Selectivity ratio I/IX (hCA IX): 38.9
Selectivity ratio II/IX (hCA IX): 20.3
Ki (hCA II): 2360 nM

Cc1ccc2nccc(Nc3ccc(S(N)(=O)=O)cc3)c2c1 [13a, 4-((6-methylquinolin-4-yl)amino)benzenesulfonamide]
Ki (hCA XII): 9.8 nM
Selectivity ratio I/XII (hCA XII): 8.0
Selectivity ratio II/XII (hCA XII): 3.7
melting point: 270 to 272 °C
Ki (hCA I): 78.4 nM
Ki (hCA IX): 25.8 nM
Selectivity ratio I/IX (hCA IX): 3.0
Selectivity ratio II/IX (hCA IX): 1.4
Ki (hCA II): 36.5 nM

NS(=O)(=O)c1ccc(Nc2ccnc3ccc(Cl)cc23)cc1 [13c, 4-((6-chloroquinolin-4-yl)amino)benzenesulfonamide]
Ki (hCA XII): 8.7 nM
Selectivity ratio I/XII (hCA XII): 6.4
Selectivity ratio II/XII (hCA XII): 0.8
melting point: 284 to 286 °C
Ki (hCA I): 55.4 nM
Ki (hCA IX): 18.6 nM
Selectivity ratio I/IX (hCA IX): 3.0
Selectivity ratio II/IX (hCA IX): 0.4
Ki (hCA II): 7.3 nM

COc1cccc2c1C(=O)c1c(O)c3c(c(O)c1C2=O)C[C@@](O)(C(=O)CO)C[C@@H]3O[C@H]1C[C@H](N)[C@H](O)[C@H](C)O1 [Doxorubicin, reference compound]
IC50 (MDA-MB-231): 1670 ± 80 nM
IC50 (MCF-7): 3.04 ± 0.14 µM

COc1ccc2nccc(NNC(=O)c3ccc(S(N)(=O)=O)cc3)c2c1 [compound 16, 4-(2-(6-Methoxyquinolin-4-yl)hydrazine-1-carbonyl)benzenesulfonamide]
Ki (hCA XII): 25.4 nM
Selectivity ratio I/XII (hCA XII): 3.2
Selectivity ratio II/XII (hCA XII): 1.2
melting point: 228 to 230 °C
Ki (hCA I): 81.4 nM
Ki (hCA IX): 21.7 nM
Selectivity ratio I/IX (hCA IX): 3.8
Selectivity ratio II/IX (hCA IX): 1.4
Ki (hCA II): 31.1 nM
